# Laboratory results published in paper PMC5020691, “Cell wall degradation is required for normal starch mobilisation in barley endosperm” (Scientific Reports, 2016).
# Assays:
# Agl97 (maltase) [1] = biological target: T1, Agl97 (maltase) (Hordeum vulgare, UniProt Q9LLY2); assay: 4-nitrophenol release, absorbance […] nm; format: biochemical; conditions: 0.6 mM, 50 mM sodium acetate pH 4.5, 5 mM CaCl2, 37 °C
# T1 construct: purified recombinant
# T1 sequence (Q9LLY2 24-879): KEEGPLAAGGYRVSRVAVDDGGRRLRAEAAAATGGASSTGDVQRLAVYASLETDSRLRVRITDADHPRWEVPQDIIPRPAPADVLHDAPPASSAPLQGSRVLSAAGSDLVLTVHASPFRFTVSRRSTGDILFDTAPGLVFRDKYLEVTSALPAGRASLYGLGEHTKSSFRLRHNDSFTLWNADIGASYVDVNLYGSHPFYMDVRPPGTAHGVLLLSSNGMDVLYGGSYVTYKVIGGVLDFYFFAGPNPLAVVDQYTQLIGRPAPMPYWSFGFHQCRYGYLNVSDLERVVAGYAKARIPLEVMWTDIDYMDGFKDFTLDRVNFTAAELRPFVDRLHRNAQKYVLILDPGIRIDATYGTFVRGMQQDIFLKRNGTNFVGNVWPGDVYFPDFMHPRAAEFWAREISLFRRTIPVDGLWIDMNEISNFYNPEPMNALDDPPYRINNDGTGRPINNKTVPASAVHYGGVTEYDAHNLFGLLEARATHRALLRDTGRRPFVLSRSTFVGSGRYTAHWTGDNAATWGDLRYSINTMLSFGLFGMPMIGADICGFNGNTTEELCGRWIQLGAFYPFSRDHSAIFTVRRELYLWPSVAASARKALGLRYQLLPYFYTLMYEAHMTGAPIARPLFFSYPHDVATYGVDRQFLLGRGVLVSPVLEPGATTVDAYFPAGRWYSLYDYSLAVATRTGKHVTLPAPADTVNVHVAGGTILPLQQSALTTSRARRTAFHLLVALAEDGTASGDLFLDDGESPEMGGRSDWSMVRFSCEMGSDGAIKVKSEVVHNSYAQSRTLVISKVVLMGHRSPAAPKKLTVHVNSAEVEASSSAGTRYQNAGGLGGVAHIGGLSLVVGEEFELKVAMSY
# Agl97 (maltase) [2] = biological target: T1, Agl97 (maltase); assay: inhibition of pNPG hydrolysis, absorbance […] nm; format: biochemical; conditions: 0.01-100 µM LAB; 0.6 mM pNPG, 50 mM sodium acetate pH 4.5, 5 mM CaCl2, 37 °C
# [3] = biological target: AXAH activity of barley endosperm (arabinoxylan arabinofuranohydrolase, endogenous) (barley (endogenous in endosperm of cv NFC Tipple)); assay: SEC; endosperm extracts of seedlings at 4-10 dpi on a Sephacryl size exclusion column in 50 mM Tris/HCl pH 7.5, 150 mM NaCl; fractions assayed for enzyme activity; size estimated against protein standards
molecule,measurement,setting,value
O=[N+]([O-])c1ccc(O[C@H]2O[C@H](CO)[C@@H](O)[C@H](O)[C@H]2O)cc1 [4-nitrophenyl α-D-glucopyranoside],"4-nitrophenol release, absorbance 405 nm",Agl97 (maltase) [1],Purified recombinant Agl97 was assayed with pNPG
"OC[C@@H]1NC[C@H](O)[C@H]1O [LAB, 1,4-dideoxy-1,4-imino-L-arabinitol]",% inhibition,Agl97 (maltase) [2],LAB inhibited the activity of purified recombinant maltase (Agl97)
"AXAH activity of barley endosperm (arabinoxylan arabinofuranohydrolase, endogenous) (enzyme)",stoichiometry N,[3],2
